Results on 30 compounds are retold here after patent US11884647B2, “Compounds and methods for targeting pathogenic blood vessels” (THE REGENTS OF THE UNIVERSITY OF CALIFORNIA, priority 2019, dated 2024).

The test system of the test is tumor endothelial cells (LL/2 lung cancer tumor). Nature of the test: Lung LL2 ex vivo model of tumor angiogenesis. To be noted: for cytotoxicity at 20 µM / cytotoxicity at 10 µM / cytotoxicity at 40 µM: Mus musculus, Endothelial cell, 48 h, read-out: Cell death; for Cell death: drug treatment two days. It is filed as cell-based, mouse. Summed up: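 Mouse LL2 tumor fragments (~0.5×0.5×0.3 mm) embedded in Matrigel and grown in endothelial growth medium at 37° C until endothelial outgrowth (about 4 days) before drug treatment. About 48 h after drug addition, stained 10 min with fluorescein diacetate/propidium iodide; live (green) and dead (red) cells imaged at 2× with fixed channel settings.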

[1] abbreviates: Lung LL2 ex vivo, Conc. 20 μm, (24 hrs).

The structures appear in SMILES notation.

As for `CCCCCCCCCCCCCCOc1ccc(S(=O)(=O)c2cnc3ccc([S+](C)[O-])cc3c2N2CCC(N3CCN(CCO)CC3)CC2)cc1` (stereo not shown) [compound 344, 2-(4-(1-(6-(methylsulfinyl)-3-((4-(tetradecyloxy)phenyl)sulfonyl)quinolin-4-yl)piperidin-4-yl)piperazin-1-yl)ethan-1-ol], the cytotoxicity at 20 µM is 10%.

Take `CCCCCCCOc1ccc(S(=O)(=O)c2cnc3ccc(SC)cc3c2N2CCC(N3CCC(O)(c4ccccc4)CC3)CC2)cc1` [compound 262, 1′-(3-((4-(heptyloxy)phenyl)sulfonyl)-6-(methylthio)quinolin-4-yl)-4-phenyl-[1,4′-bipiperidin]-4-ol]: the cytotoxicity at 10 µM stood at 20%.

Turning to `CCOC(=O)c1ccc2ncc(S(=O)(=O)c3ccc(OC)cc3)c(N3CCC(N4CCCC(O)C4)CC3)c2c1` (stereo not shown) [compound 174, ethyl 4-(3-hydroxy-[1,4′-bipiperidin]-1′-yl)-3-((4-methoxyphenyl)sulfonyl)quinoline-6-carboxylate], the cytotoxicity at 40 µM was determined as 30%.

Compound `COc1ccc(S(=O)(=O)c2cnc3ccc(OC(F)(F)F)cc3c2N2CCC(N3CCC(O)CC3)CC2)cc1` [compound 113, 1′-(3-((4-methoxyphenyl)sulfonyl)-6-(trifluoromethoxy)quinolin-4-yl)-[1,4′-bipiperidin]-4-ol] registered a Cell death (Lung LL2 ex vivo, Conc. 20 μm) of 10%.

Take `CCCCCCCOc1ccc(S(=O)(=O)c2cnc3ccc([S+](C)[O-])cc3c2N2CCN(CC3CCN(Cc4ccccc4)CC3)CC2)cc1` (stereo not shown) [compound 279, 4-(4-((1-benzylpiperidin-4-yl)methyl)piperazin-1-yl)-3-((4-(heptyloxy)phenyl)sulfonyl)-6-(methylsulfinyl)quinoline]: the cytotoxicity at 20 µM came to 100%.

For the compound `CCCCOc1ccc(S(=O)(=O)c2cnc3ccc(OC(F)(F)F)cc3c2N2CCS(=O)(=O)CC2)cc1` [compound 198, 4-(3-((4-butoxyphenyl)sulfonyl)-6-(trifluoromethoxy)quinolin-4-yl)thiomorpholine 1,1-dioxide], the cytotoxicity at 40 µM amounted to 30%.

In the case of `CCCCCCCCCCOc1ccc(S(=O)(=O)c2cnc3ccc([S+](C)[O-])cc3c2N2CCC(N3CCC(N4CCCN(C)CC4)CC3)CC2)cc1` (stereo not shown) [compound 287, 3-((4-(decyloxy)phenyl)sulfonyl)-4-(4-(4-methyl-1,4-diazepan-1-yl)-[1,4′-bipiperidin]-1′-yl)-6-(methylsulfinyl)quinoline], under setting [1], the “Cell death (24 hrs)” value is given as 40% and the “Morphology observations (24 hrs)” value is reported as “* (50% or less of cells vesicularize in cell shape)”.

On to `CCCCCCCOc1ccc(S(=O)(=O)c2cnc3ccc(SC)cc3c2N2CCN(CCN3CCCC3)CC2)cc1` [compound 272, 3-((4-(heptyloxy)phenyl)sulfonyl)-6-(methylthio)-4-(4-(2-(pyrrolidin-1-yl)ethyl)piperazin-1-yl)quinoline], for which the cytotoxicity at 20 µM was 20%.

As to `COc1ccc(S(=O)(=O)c2cnc3ccc(S(C)(=O)=O)cc3c2NN2CCN(C)CC2)cc1` [compound 228, 3-((4-methoxyphenyl)sulfonyl)-N-(4-methylpiperazin-1-yl)-6-(methylsulfonyl)quinolin-4-amine], the cytotoxicity at 40 µM was found to be 5%.

As for `CCOC(=O)c1ccc2ncc(S(=O)(=O)c3ccc(OC)cc3)c(NN3CCN(C)CC3)c2c1` [compound 225, ethyl 3-((4-methoxyphenyl)sulfonyl)-4-((4-methylpiperazin-1-yl)amino)quinoline-6-carboxylate], the cytotoxicity at 40 µM came out at 40%.

Consider `CC(C)CCCC(C)CCOc1ccc(S(=O)(=O)c2cnc3ccc([S+](C)[O-])cc3c2N2CCC(N3CCC(N4CCCCC4)CC3)CC2)cc1` (stereo not shown) [compound 289, 4-([1,4′:1′,4″-terpiperidin]-1″-yl)-3-((4-((3,7-dimethyloctyl)oxy)phenyl)sulfonyl)-6-(methylsulfinyl)quinoline], for which the cytotoxicity at 20 µM amounted to 20%.

In the case of `CCCCCCCOc1ccc(S(=O)(=O)c2cnc3ccc(SC)cc3c2N2CCC(N3CCC(N4CCCCC4)CC3)CC2)cc1` [compound 251, 4-([1,4′:1′,4″-terpiperidin]-1″-yl)-3-((4-(heptyloxy)phenyl)sulfonyl)-6-(methylthio)quinoline], the cytotoxicity at 20 µM came out at 60%.

For the compound `CCCCCCCCCCCCOc1ccc(S(=O)(=O)c2cnc3ccc([S+](C)[O-])cc3c2N2CCC(N3CCC(N4CCN(CCO)CC4)CC3)CC2)cc1F` (stereo not shown) [compound 368, 2-(4-(1′-(3-((4-(dodecyloxy)-3-fluorophenyl)sulfonyl)-6-(methylsulfinyl)quinolin-4-yl)-[1,4′-bipiperidin]-4-yl)piperazin-1-yl)ethanol], the cytotoxicity at 20 µM worked out at 20%.

Take `CCc1ccc(S(=O)(=O)c2cnc3ccc(OC(F)(F)F)cc3c2-n2cccc2)cc1` [compound 108, 3-((4-ethylphenyl)sulfonyl)-4-(1H-pyrrol-1-yl)-6-(trifluoromethoxy)quinoline]: the cytotoxicity at 20 µM worked out at 0%.

Take `CCN(c1c(S(=O)(=O)c2ccc(OC)cc2)cnc2cc(OC)c(OC)cc12)C(C)C` [compound 294, N-ethyl-N-isopropyl-6,7-dimethoxy-3-((4-methoxyphenyl)sulfonyl)quinolin-4-amine]: the cytotoxicity at 40 µM was 50%.

Turning to `CCCCOc1ccc(S(=O)(=O)c2cnc3ccc(C(=O)OCC)cc3c2N2CCS(=O)(=O)CC2)cc1` [compound 196, ethyl 3-((4-butoxyphenyl)sulfonyl)-4-(1,1-dioxidothiomorpholino)quinoline-6-carboxylate], the cytotoxicity at 40 µM was 30%.

`COc1ccc(S(=O)(=O)c2cnc3cc(OC)c(OC)cc3c2N2CCC(N3CCCC3CO)CC2)cc1` (stereo not shown) [compound 322, (1-(1-(6,7-dimethoxy-3-((4-methoxyphenyl)sulfonyl)quinolin-4-yl)piperidin-4-yl)pyrrolidin-2-yl)methanol]: the cytotoxicity at 40 µM amounted to 30%.

For the compound `COc1ccc(S(=O)(=O)c2cnc3cc(OC)c(OC)cc3c2N2CCCN(CCO)CC2)cc1` [compound 323, 2-(4-(6,7-dimethoxy-3-((4-methoxyphenyl)sulfonyl)quinolin-4-yl)-1,4-diazepan-1-yl)ethan-1-ol], the cytotoxicity at 40 µM worked out at 30%.

Regarding `CCCCCCCCCCCCCCCCOc1ccc(S(=O)(=O)c2cnc3ccc([S+](C)[O-])cc3c2N2CCC(N3CCC(N4CCCCC4)CC3)CC2)cc1` (stereo not shown) [compound 377, 4-([1,4′:1′,4″-terpiperidin]-1″-yl)-3-((4-(hexadecyloxy)phenyl)sulfonyl)-6-(methylsulfinyl)quinoline], the cytotoxicity at 20 µM was 10%.

Where the note is “Lung LL2 ex vivo, Conc. 20 μm”, `O=S(=O)(c1ccc(OC(F)(F)F)cc1)c1cnc2ccc(OC(F)(F)F)cc2c1N1CCC(N2CCCCC2)CC1` [compound 120, 4-([1,4′-bipiperidin]-1′-yl)-6-(trifluoromethoxy)-3-((4-(trifluoromethoxy)phenyl)sulfonyl)quinoline] displayed a Cell death of 5%.

With `CCCCCCCOc1ccc(S(=O)(=O)c2cnc3ccc(SC)cc3c2N2CCCN(CCN3CCCCC3)CC2)cc1` [compound 248, 3-((4-(heptyloxy)phenyl)sulfonyl)-6-(methylthio)-4-(4-(2-(piperidin-1-yl)ethyl)-1,4-diazepan-1-yl)quinoline], the cytotoxicity at 20 µM was 60%.

For `CCCCOc1ccc(S(=O)(=O)c2cnc3ccc(C(=O)OCC)cc3c2N2CCN(c3ccc(F)cc3)CC2)cc1` [compound 213, ethyl 3-((4-butoxyphenyl)sulfonyl)-4-(4-(4-fluorophenyl)piperazin-1-yl)quinoline-6-carboxylate], the Cell death (Lung LL2 ex vivo, Conc. 40 μm) was found to be 30%.

For the compound `CCCCCCCOc1ccc(S(=O)(=O)c2cnc3ccc([S+](C)[O-])cc3c2N2CCN(CCN3CCCCC3)CC2)cc1` (stereo not shown) [compound 282, 3-((4-(heptyloxy)phenyl)sulfonyl)-6-(methylsulfinyl)-4-(4-(2-(piperidin-1-yl)ethyl)piperazin-1-yl)quinoline], the cytotoxicity at 10 µM came to 10%.

Consider `COc1ccc(S(=O)(=O)c2cnc3cc(OC)c(OC)cc3c2N2CCC3C(COCCN3CC(C)C)C2)cc1` (stereo not shown) [compound 324, 7-(6,7-dimethoxy-3-((4-methoxyphenyl)sulfonyl)quinolin-4-yl)-1-isobutyldecahydropyrido[4,3-e][1,4]oxazepine], for which the cytotoxicity at 40 µM is 60%.

Turning to `CCOC(=O)c1ccc2ncc(S(=O)(=O)c3ccc(OC)cc3)c(-n3cncn3)c2c1` [compound 183, ethyl 3-((4-methoxyphenyl)sulfonyl)-4-(1H-1,2,4-triazol-1-yl)quinoline-6-carboxylate], the cytotoxicity at 10 µM was 100%.

As for `COc1ccc(S(=O)(=O)c2cnc3cc(OC)c(OC)cc3c2N2CCCN(CC3(O)CCCC3)CC2)cc1` [compound 325, 1-((4-(6,7-dimethoxy-3-((4-methoxyphenyl)sulfonyl)quinolin-4-yl)-1,4-diazepan-1-yl)methyl)cyclopentan-1-ol], the cytotoxicity at 40 µM was found to be 30%.

Take `CCCCOc1ccc(S(=O)(=O)c2cnc3ccc(SC)cc3c2N2CCC(N3CCN(c4ccc(F)cc4)CC3)CC2)cc1` [compound 233, 3-((4-butoxyphenyl)sulfonyl)-4-(4-(4-(4-fluorophenyl)piperazin-1-yl)piperidin-1-yl)-6-(methylthio)quinoline]: the cytotoxicity at 40 µM turned out to be 5%.

Consider `CCCCCCCOc1ccc(S(=O)(=O)c2cnc3ccc([S+](C)[O-])cc3c2N2CCN(C3CCN(Cc4ccccc4)C3)CC2)cc1` (stereo not shown) [compound 278, 4-(4-(1-benzylpyrrolidin-3-yl)piperazin-1-yl)-3-((4-(heptyloxy)phenyl)sulfonyl)-6-(methylsulfinyl)quinoline], for which the cytotoxicity at 10 µM worked out at 50%.

As for `CCOC(=O)c1ccc2ncc(S(=O)(=O)c3ccc(OC)cc3)c(-n3cnnn3)c2c1` [compound 185, ethyl 3-((4-methoxyphenyl)sulfonyl)-4-(1H-tetrazol-1-yl)quinoline-6-carboxylate], the cytotoxicity at 10 µM came out at 30%.

Take `CCCCCCCCCCCCOc1ccc(S(=O)(=O)c2cnc3ccc([S+](C)[O-])cc3c2N2CCC(N3CCN(CCO)CC3)CC2)cc1` (stereo not shown) [compound 339, 2-(4-(1-(3-((4-(dodecyloxy)phenyl)sulfonyl)-6-(methylsulfinyl)quinolin-4-yl)piperidin-4-yl)piperazin-1-yl)ethan-1-ol]: the cytotoxicity at 20 µM stood at 50%.
